Columns and labels:
Conditions in all cases: class symbol for inhibition
[1] = target: full length inactive AKT1 protein (Homo sapiens, UniProt P31749); test: AKT activity; thermal shift binding assay
Protocol: Aliquots of compounds in DMSO (1 μL @ 375 μM) were placed in the V bottom 96 well PCR plate, and incubated for 30 minutes with 24 μL of AKT1 protein in 25 mM TRIS buffer pH 7.5, 100 mM NaCl, 0.1% 2-mercaptoethanol, pre-mixed with environmentally sensitive fluorescent dye Sypro Orange (12.5×). The plates were centrifuged for […] @ 2000 rpm and 25° C. before the analysis on the IQ5 Real time PCR machine (Biorad). The thermal stability of the protein-ligand complex was monitored by changes in Sypro Orange fluorescence while subjecting the binding mixture to a temperature gradient of 30 to 75° C. at 1° C./min heating rate. Shifts in the protein melting temperature (ΔTm) greater than 0.6° C. compared to the protein alone were indicative of the inhibitor binding. Dissociation constants (Kd's) for the inhibitors were calculated from the melting curves as described in Mei-Chu-Lo et al., Anal.Biochem., 332: 153, 2004.

p70S6K = target: T1, p70S6K (Homo sapiens, UniProt P23443); test: p70S6 kinase activity assay (HTRF); assay type: biochemical
T1 construct: purchased Upstate/Millipore
T1 sequence (P23443 whole entry): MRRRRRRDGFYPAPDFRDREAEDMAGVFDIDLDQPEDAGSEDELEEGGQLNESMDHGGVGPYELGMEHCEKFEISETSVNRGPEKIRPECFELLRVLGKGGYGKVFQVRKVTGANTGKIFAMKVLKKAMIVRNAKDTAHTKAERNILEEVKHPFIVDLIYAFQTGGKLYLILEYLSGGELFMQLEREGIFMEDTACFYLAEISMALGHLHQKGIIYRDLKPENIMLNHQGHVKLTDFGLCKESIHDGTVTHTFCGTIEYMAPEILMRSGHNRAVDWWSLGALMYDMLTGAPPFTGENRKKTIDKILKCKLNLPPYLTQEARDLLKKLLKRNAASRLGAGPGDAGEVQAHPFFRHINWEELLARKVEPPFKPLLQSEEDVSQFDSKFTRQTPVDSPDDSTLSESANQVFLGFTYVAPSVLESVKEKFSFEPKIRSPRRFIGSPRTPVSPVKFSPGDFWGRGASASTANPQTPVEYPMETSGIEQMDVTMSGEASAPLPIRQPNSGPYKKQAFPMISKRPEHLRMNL
Protocol: p70S6K activity was assayed using Cisbio's homogeneous time-resolved fluorescence (HTRF®) technology. The extent of phosphorylation of the biotinylated peptide substrate STK-S3 is determined using a phospho-specific STK Antibody labeled with Eu^3+-cryptate and streptavidin-XL665 that will bind to the biotin on the peptide. When in close proximity, excitation of the Eu^3+ cryptate donor fluorophore results in fluorescence resonance energy transfer (FRET) to the XL665 acceptor fluorophore and the emission signal from XL665 is measured.
The assay is performed using reagents from the HTRF® KinEASE™-STK kit from Cisbio including enzymatic buffer (50 mM HEPES pH7, 0.02% NaN3, 0.01% BSA, and 0.1 mM Na3VO4), STK-S3 substrate-biotin, Eu^3+-Cryptate labeled STK antibody, Streptavidin-XL665, and detection buffer (50 mM HEPES pH 7, 0.1% BSA, 0.8M KF, and 20 mM EDTA). Test inhibitors and controls (staurosporine) are prepared at 5× the desired final concentration. Test compound (5.0 μL), p70S6 (10 μL) from Upstate/Millipore (final concentration is 2.5 ng/well), and 10 μL substrate/ATP are added to each well of a reaction plate (Corning 96-well half-area solid black nonbinding surface plate). All reaction components are diluted in enzymatic buffer supplemented with 2 mM MgCl2 and 1 mM DTT. The final concentration of STK-S3 substrate is 500 nM and the final concentration of ATP is 100 μM.

FGFR2 kinase = FGFR2 kinase fluorescent ELISA assay; assay type: biochemical
Protocol: A fluorescent ELISA assay was developed to identify and characterize inhibitors of FGFR2 kinase. This heterogeneous assay utilizes a biotinylated peptide with a tyrosine motif as a substrate and an anti-phospho-tyrosine antibody to measure phosphorylation of the substrate. The reaction is initiated by adding test compound, 37 uM Pyk2 substrate (Midwest Biotech, cat. #MBT2383) and 12.5 μM ATP (Roche, cat. #11 140 965 001), and 0.5 μM FGFR2 enzyme (Millipore, cat. #14-742) sequentially to a non-binding polypropylene V-well plate. All reagents are in assay buffer consisting of: 50 mM Tris-HCL, 0.02 mg/mL BSA, 10 mM MgCl2, 0.1 mM Na3VO4, 1 mM EGTA, 75 μM ATP, 0.01% NP-40, 2 mM DTT, 10% Glycerol. The reaction is incubated for 60 minutes. As the reaction proceeds, FGFR2 phosphorylates tyrosines in the peptide. The reaction mixture is then moved to a blocked streptavidin coated Nunc Maxisorb plate (coated with 100 ng streaptavidin from Pierce (cat #15-124) per well) allowing for the capture of the biotinylated peptide. Peptide is captured for 30 minutes at room temperature, the phosphorylation of peptide continues during this phase. The reaction is stopped by washing the Streptavidin plate 6 times with TBST. Phosphorylated peptide is detected by adding anti-phospho tyrosine antibody (purchased from Cell Signaling, cat. #9411, diluted 1:3000), unbound antibody is removed by washing 6 times with TBST. Secondary detection is performed using Alkaline Phosphatase tagged goat anti-mouse antibody (purchased from Pierce, cat. #31320, diluted 1:4000) for one hour. Unbound secondary antibody is removed by washing 6 times with TBST.
The fluorescent readout is initiated by the addition of Promega Attophos substrate (purchased from Promega; Kit catalog number: S1000, dilution=6 mg/10 mL), which when dephosphorylated by Alkaline phosphatase emits a fluorescent signal of […] when excited by a signal […]. This reading is done on the Perkin Elmer Envision system. Compounds which prevent the FGFR2 from phosphorylating the peptide result in a lower fluorescent signal. The signal is directly proportional to the activity of FGFR2 and compound inhibition of FGFR2 is monitored by a decrease in signal.

Sequence of full length inactive AKT1 protein (P31749 whole entry): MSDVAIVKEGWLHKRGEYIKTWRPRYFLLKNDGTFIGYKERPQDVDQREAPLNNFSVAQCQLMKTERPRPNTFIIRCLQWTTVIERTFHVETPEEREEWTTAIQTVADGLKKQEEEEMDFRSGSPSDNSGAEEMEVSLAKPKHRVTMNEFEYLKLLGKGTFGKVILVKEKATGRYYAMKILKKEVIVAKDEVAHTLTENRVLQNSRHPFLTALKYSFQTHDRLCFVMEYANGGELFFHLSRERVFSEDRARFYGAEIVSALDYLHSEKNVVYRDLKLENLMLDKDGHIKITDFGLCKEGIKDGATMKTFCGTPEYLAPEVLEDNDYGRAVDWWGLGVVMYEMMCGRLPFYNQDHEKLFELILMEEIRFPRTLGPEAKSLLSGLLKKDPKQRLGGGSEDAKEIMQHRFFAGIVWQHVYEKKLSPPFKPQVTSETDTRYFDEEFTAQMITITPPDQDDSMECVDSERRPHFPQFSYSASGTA

Substance	AKT activity [1]	p70S6 kinase activity (p70S6K)	FGFR2 kinase activity (FGFR2 kinase)
N^1-(3-(5-benzoyl-7H-pyrrolo[2,3-d]pyrimidin-4-ylamino)phenyl)succinamide [Compound 10a]	− (A negative sign indicates that inhibition is less than 25%)	− (A negative sign indicates that inhibition is less than 25%)	+ (A positive sign indicates that inhibition is greater or equal to 25%)
N-(3-(5-benzoyl-7H-pyrrolo[2,3-d]pyrimidin-4-ylamino)phenyl)-4-(dimethylamino)butanamide [Compound 3a]	− (A negative sign indicates that inhibition is less than 25%)	+ (A positive sign indicates that inhibition is greater or equal to 25%)	− (A negative sign indicates that inhibition is less than 25%)
2-acetamido-N-(3-(5-benzoyl-7H-pyrrolo[2,3-d]pyrimidin-4-ylamino)phenyl)acetamide [Compound 2a]	− (A negative sign indicates that inhibition is less than 25%)	+ (A positive sign indicates that inhibition is greater or equal to 25%)	− (A negative sign indicates that inhibition is less than 25%)
N-(3-(5-benzoyl-7H-pyrrolo[2,3-d]pyrimidin-4-ylamino)phenyl)-5-(pyrrolidin-1-yl)pentanamide [Compound 8a]	+ (A positive sign indicates that inhibition is greater or equal to 25%)	− (A negative sign indicates that inhibition is less than 25%)	+ (A positive sign indicates that inhibition is greater or equal to 25%)
N-(3-(5-benzoyl-7H-pyrrolo[2,3-d]pyrimidin-4-ylamino)phenyl)acetamide [Compound 9a]	+ (A positive sign indicates that inhibition is greater or equal to 25%)	− (A negative sign indicates that inhibition is less than 25%)	− (A negative sign indicates that inhibition is less than 25%)
N-(3-(3-benzoyl-1H-indol-4-ylamino)phenyl)-3-(pyridin-3-yl)propanamide [Compound 1a]	+ (A positive sign indicates that inhibition is greater or equal to 25%)	+ (A positive sign indicates that inhibition is greater or equal to 25%)	− (A negative sign indicates that inhibition is less than 25%)
N-(3-(5-benzoyl-7H-pyrrolo[2,3-d]pyrimidin-4-ylamino)phenyl)-2-(dimethylamino)acetamide [Compound 7a]	− (A negative sign indicates that inhibition is less than 25%)	+ (A positive sign indicates that inhibition is greater or equal to 25%)	− (A negative sign indicates that inhibition is less than 25%)
3-acetamido-N-(3-(5-benzoyl-7H-pyrrolo[2,3-d]pyrimidin-4-ylamino)phenyl)propanamide [Compound 4a]	− (A negative sign indicates that inhibition is less than 25%)	+ (A positive sign indicates that inhibition is greater or equal to 25%)	− (A negative sign indicates that inhibition is less than 25%)
(4-(3-aminophenylamino)-7H-pyrrolo[2,3-d]pyrimidin-5-yl)(phenyl)methanone [Compound 5a]	+ (A positive sign indicates that inhibition is greater or equal to 25%)	+ (A positive sign indicates that inhibition is greater or equal to 25%)	− (A negative sign indicates that inhibition is less than 25%)
N-(3-(5-benzoyl-7-methyl-7H-pyrrolo[2,3-d]pyrimidin-4-ylamino)phenyl)acetamide [Compound 6a]	+ (A positive sign indicates that inhibition is greater or equal to 25%)	− (A negative sign indicates that inhibition is less than 25%)	− (A negative sign indicates that inhibition is less than 25%)

— patent US8173808B2, “Substituted naphthalenyl-pyrimidine compounds” (ArQule, Inc., priority 2009, dated 2012)
